# Test results: PMC11274128, “Modification and Synergistic Studies of a Novel Frog Antimicrobial Peptide against Pseudomonas aeruginosa Biofilms” (Antibiotics, 2024)
# Like-named read-outs stand apart in the source and are kept apart here. Bridge positions count the residues as written; N and C are the ends. Ends that are not written are not given here. Peptide text beside a SMILES is read from it.
# How the values were obtained:
# S. aureus (ATCC 6538) = assay: microbe, parasite or virus in culture; format: cell-based, Staphylococcus aureus; settings: planktonic S. aureus ATCC 6538; for MIC: 37 °C, nine repeats of three independent experiments; for MBC: lowest concentration killing 99.9% of inoculum
# Text: (§1) The minimum inhibitory concentration (MIC) is the minimum concentration of an antimicrobial agent that prevents the visible growth of a bacterium or bacteria. The MIC is an important piece of data for research on new antimicrobial agents and helps in the effective selection of antibiotics to improve the success of treatment. The minimum bactericidal concentration (MBC) is defined as the lowest antibiotic concentration that kills 99.9% of the inoculum. This study mainly contained eight different microorganisms, which were Staphylococcus aureus (ATCC 6538), methicillin-resistant Staphylococcus aureus (NCTC 12493), Enterococcus faecalis (NCTC 12697), Escherichia coli (ATCC 8739), Klebsiella pneumoniae (ATCC 43816), Pseudomonas aeruginosa (ATCC CRM 9027), Acinetobacter baumannii (BAA 747), and Candida albicans (ATCC 10231). The bacteria were incubated in the compatible medium at 37 °C overnight.
# MRSA (NCTC 12493) = assay: microbe, parasite or virus in culture; format: cell-based, methicillin-resistant Staphylococcus aureus; settings: planktonic MRSA NCTC 12493; for MIC: 37 °C, nine repeats of three independent experiments; for MBC: lowest concentration killing 99.9% of inoculum
# Text: as §1
# E. coli (ATCC 8739) = assay: microbe, parasite or virus in culture; format: cell-based, Escherichia coli; settings: planktonic E. coli ATCC 8739; for MIC: 37 °C, nine repeats of three independent experiments; for MBC: lowest concentration killing 99.9% of inoculum
# Text: as §1
# [1] = tested on: K. pneumoniae (ATCC 43816); assay: microbe, parasite or virus in culture; format: cell-based, Klebsiella pneumoniae; settings: planktonic K. pneumoniae ATCC 43816; for MIC: 37 °C, nine repeats of three independent experiments; for MBC: lowest concentration killing 99.9% of inoculum
# Text: as §1
# [2] = tested on: P. aeruginosa (ATCC CRM 9027); assay: microbe, parasite or virus in culture; format: cell-based, Pseudomonas aeruginosa; settings: planktonic P. aeruginosa ATCC CRM 9027; for MIC: 37 °C, nine repeats of three independent experiments; for MBC: lowest concentration killing 99.9% of inoculum
# Text: as §1
# A. baumannii (BAA 747) = assay: microbe, parasite or virus in culture; format: cell-based, Acinetobacter baumannii; settings: planktonic A. baumannii BAA 747; for MIC: 37 °C, nine repeats of three independent experiments; for MBC: lowest concentration killing 99.9% of inoculum
# Text: as §1
# C. albicans (ATCC 10231) = format: cell-based, Candida albicans; settings: yeast C. albicans ATCC 10231; for MIC: 37 °C, nine repeats of three independent experiments; for MBC: lowest concentration killing 99.9% of inoculum
# Text: as §1
# G+ Bacteria = assay: Geometric mean of MICs and TI value; format: cell-based; settings: geometric mean of MICs against tested Gram-positive bacteria
# Method: (§2) The therapeutic potential of antimicrobial agents was valued based on their selectivity toward bacteria in reference to erythrocytes. The TI value was calculated from the results of antibacterial and haemolysis experiments of peptides using the following formula:TI value = HC10 / GMMICs.
# (§3) GM was the geometric mean of MICs against all tested bacteria.
# G− Bacteria = assay: Geometric mean of MICs and TI value; format: cell-based; settings: geometric mean of MICs against tested Gram-negative bacteria
# Method: as §2, §3
# Yeast = assay: Geometric mean of MICs and TI value; format: cell-based, Candida albicans; settings: C. albicans ATCC 10231
# Method: as §2, §3
# horse red blood cells = horse red blood cells in PBS, 37 °C, 2 h, absorbance 570 nm; positive control 0.1% Triton
# Method: The pure peptide was dissolved in PBS and then two-fold diluted to obtain a series of concentrations: 512, 256, 128, 64, 32, 16, 8, 4, and 2 μM. A positive control (0.1% Triton) and blank control (PBS) were used. Two millilitres of fresh horse red blood cells were washed in PBS until the supernatant became colourless and clear, and the mixture was then thoroughly mixed. Each mixture contained 100 μL of peptide solution or controls and 100 μL of horse red blood cells, which were then incubated at 37 °C for 2 h and centrifuged at 930× g for 10 min. Subsequently, 100 μL of supernatant from each tube was transferred into a 96-well plate, and the plate reader measured the absorbance at a wavelength of 570 nm. The haemolysis rate was calculated using the following formula:Percentage Haemolysis= (ASample − ABlank)/(APositive − ABlank) × 100%
# E. faecalis (NCTC 12697) = assay: microbe, parasite or virus in culture; format: cell-based, Enterococcus faecalis; settings: planktonic E. faecalis NCTC 12697; for MIC: 37 °C, nine repeats of three independent experiments; for MBC: lowest concentration killing 99.9% of inoculum
# Text: as §1
Molecule,MIC (S. aureus (ATCC 6538)) [µM],MBC (S. aureus (ATCC 6538)) [µM],MIC ([1]; read-out: MIC) [µM],MBC ([1]; read-out: MBC) [µM],MIC [2] [µM],MBC [2] [µM],MIC (C. albicans (ATCC 10231)) [µM],MBC (C. albicans (ATCC 10231)) [µM],"GM (geometric mean of MICs), G+ Bacteria (G+ Bacteria) [µM]","GM (geometric mean of MICs), G− Bacteria (G− Bacteria) [µM]","GM (geometric mean of MICs), Yeast (Yeast) [µM]",HC10 (horse red blood cells) [µM],MIC (E. faecalis (NCTC 12697)) [µM],MBC (E. faecalis (NCTC 12697)) [µM],MIC (E. coli (ATCC 8739); read-out: MIC) [µM],MBC (E. coli (ATCC 8739); read-out: MBC) [µM],MIC (A. baumannii (BAA 747)) [µM],MBC (A. baumannii (BAA 747)) [µM],MIC (MRSA (NCTC 12493)) [µM],MBC (MRSA (NCTC 12493)) [µM],further results
CC[C@H](C)[C@H](NC(=O)[C@H](CCCCN)NC(=O)[C@H](CCCCN)NC(=O)CNC(=O)[C@H](C)NC(=O)[C@H](C)NC(=O)[C@H](CC(C)C)NC(=O)[C@@H](NC(=O)[C@H](C)NC(=O)[C@H](CCCNC(=N)N)NC(=O)[C@H](CC(C)C)NC(=O)[C@H](CC(C)C)NC(=O)CN)C(C)C)C(=O)N[C@H](C(=O)N[C@H]1CSSC[C@@H](C(=O)O)NC(=O)[C@H](CCCNC(=N)N)NC(=O)CNC(=O)[C@H](CO)NC(=O)[C@H](CC(C)C)NC(=O)CNC1=O)C(C)C [Peptide 2085-R] (H-GLLRAVLAAGKKIVCGLSGRC-OH; disulfide 15-21),16,16,32,64,64,64,32,32,25.40,32.00,32.00,>256,,,,,,,,,MIC (MRSA (NCTC 12493); read-out: MIC): 16 µM; MBC (MRSA (NCTC 12493); read-out: MBC): 32 µM; MIC (E. coli (ATCC 8739)): 16 µM; MBC (E. coli (ATCC 8739)): 16 µM; MIC (A. baumannii (BAA 747); read-out: MIC): 32 µM; MBC (A. baumannii (BAA 747); read-out: MBC): 64 µM
"GLLRGVLGAGKKIVCGLSGRC (disulfide 15-21 (inferred)) [Peptide 2057-C, N-terminus modified analogue of Nigrosin-6VL]",128,> 128,64,128,,,> 128,> 128,128.00,64.00,256.00,>256,> 128,> 128,16,32,> 128,> 128,,,MIC (MRSA (NCTC 12493); read-out: MIC): 64 µM; MBC (MRSA (NCTC 12493); read-out: MBC): 128 µM; MIC ([2]; read-out: MIC): 64 µM; MBC ([2]; read-out: MBC): 128 µM
GLLSGVLGAGKKIVAGLSGRA [Peptide 1924-A],128,> 128,64,128,128,> 128,64,128,203.19,107.63,64.00,>256,> 128,> 128,64,128,> 128,> 128,> 128,> 128,
GLLSGVLGAGKKIVCGLSGR- [Peptide 1885-R],128,> 128,32,64,,,> 128,> 128,128.00,45.25,256.00,>256,> 128,> 128,32,64,128,> 128,64,64,MIC ([2]; read-out: MIC): 32 µM; MBC ([2]; read-out: MBC): 64 µM
GLLSGVLGAGKKIVGLSGRC [Peptide 1885-C],> 128,> 128,64,128,,,> 128,> 128,256.00,64.00,256.00,>256,> 128,> 128,16,32,> 128,> 128,> 128,> 128,MIC ([2]; read-out: MIC): 64 µM; MBC ([2]; read-out: MBC): 128 µM
H-GLLSGVLGAGKKIVGLSGR-OH [Peptide 1782-R],> 128,> 128,,,> 128,> 128,> 128,> 128,256.00,215.27,256.00,>256,> 128,> 128,,,> 128,> 128,> 128,> 128,MIC (E. coli (ATCC 8739)): 128 µM; MBC (E. coli (ATCC 8739)): > 128 µM; MIC [1]: > 128 µM; MBC [1]: > 128 µM
